The inhibition is the change of the read-out against control, counted positive when it falls. One may read the Ki as a measure of affinity in units of concentration, obtained from inhibition or displacement. A lower Ki goes with a stronger hold on the target. For orientation: IC50 means the concentration that gives 50% inhibition. A lower IC50 goes with greater potency in that assay.

Results on four compounds are retold here after ChEMBL document CHEMBL1143011, “NMR screening applied to the fragment-based generation of inhibitors of creatine kinase exploiting a new interaction proximate to the ATP binding site” (J Med Chem, 2007).

Assay [1] has as its target Creatine kinase M-type (Oryctolagus cuniculus) (UniProt P00563). The experiment in a line: Inhibition of rabbit muscle creatine kinase at 27.5 uM in presence of 400 uM MgATP.
The target of assay [2] is T1, Creatine kinase M-type (Oryctolagus cuniculus, UniProt P00563). The experiment in a line: Inhibition of rabbit muscle creatine kinase-MgATP complex by pH-stat assay.
Assay [3] deals with T1, Creatine kinase M-type. The experiment in a line: Inhibition of rabbit muscle creatine kinase by pH-stat assay.

Creatine kinase M-type (Oryctolagus cuniculus), sequence (P00563 whole entry): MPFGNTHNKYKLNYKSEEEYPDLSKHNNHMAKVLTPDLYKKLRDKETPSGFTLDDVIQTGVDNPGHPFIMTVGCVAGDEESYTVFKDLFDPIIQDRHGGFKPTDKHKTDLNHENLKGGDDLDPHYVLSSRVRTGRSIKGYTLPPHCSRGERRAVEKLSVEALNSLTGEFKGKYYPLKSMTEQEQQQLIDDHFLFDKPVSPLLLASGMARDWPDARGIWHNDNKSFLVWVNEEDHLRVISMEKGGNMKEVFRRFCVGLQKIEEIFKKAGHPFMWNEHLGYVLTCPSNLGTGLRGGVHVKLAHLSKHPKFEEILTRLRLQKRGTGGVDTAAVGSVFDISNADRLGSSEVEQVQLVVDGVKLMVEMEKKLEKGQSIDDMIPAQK
T1 sequence (P00563 whole entry): as above

In the case of `O=C(Nc1ccc(C(=O)c2ccccc2)cc1)c1ccc(-c2ccc(C(=O)O)o2)cc1`, the inhibition in assay [1] stood at 35%. The compound further gave a Ki in assay [2] of 70 µM. Moreover, in assay [3], the IC50 amounted to 50 µM and the Ki is 25 µM.

`O=C(c1ccccc1)c1ccc(-c2ccc(-c3ccc(C(=O)O)o3)cc2)cc1`: the inhibition in assay [1] turned out to be 63%.

With `O=C(NCc1ccccc1)c1ccc(-c2ccc(C(=O)O)o2)cc1`, in assay [1], the inhibition is 20%.

In the case of `O=C(NCc1ccc(-c2ccccc2)cc1)c1ccc(-c2ccc(C(=O)O)o2)cc1`, the inhibition in assay [1] was 63%.
